The term pIC50 denotes the negative decadic logarithm of the IC50, by convention in mol/L.

Drawing on ChEMBL document CHEMBL3603835, “Discovery of dihydroisoquinolinone derivatives as novel inhibitors of the p53-MDM2 interaction with a distinct binding mode” (Bioorg Med Chem Lett, 2015), this text covers IC50 for 8 compounds.

Structures are written as SMILES. pIC50: −log10 of the molar value.

Experiment [1] in a line: Antiproliferative activity against p53 deficient human Saos2 cells. The conditions noted are these: SAOS-2.
A further experiment relates to SJSA-1. The experiment in a line: Antiproliferative activity against p53 positive human SJSA1 cells.
For experiment [2], the target named is Tumour suppressor p53/oncoprotein Mdm2 (Homo sapiens, UniProt Q00987). The experiment in a line: Inhibition of p53-MDM2 interaction (unknown origin) by TR-FRET assay. In kind it is protein assay. In general terms: In TR-FRET formats the signal depends on donor and acceptor labels being close together.
Tumour suppressor p53/oncoprotein Mdm2, sequence (P04637 whole entry): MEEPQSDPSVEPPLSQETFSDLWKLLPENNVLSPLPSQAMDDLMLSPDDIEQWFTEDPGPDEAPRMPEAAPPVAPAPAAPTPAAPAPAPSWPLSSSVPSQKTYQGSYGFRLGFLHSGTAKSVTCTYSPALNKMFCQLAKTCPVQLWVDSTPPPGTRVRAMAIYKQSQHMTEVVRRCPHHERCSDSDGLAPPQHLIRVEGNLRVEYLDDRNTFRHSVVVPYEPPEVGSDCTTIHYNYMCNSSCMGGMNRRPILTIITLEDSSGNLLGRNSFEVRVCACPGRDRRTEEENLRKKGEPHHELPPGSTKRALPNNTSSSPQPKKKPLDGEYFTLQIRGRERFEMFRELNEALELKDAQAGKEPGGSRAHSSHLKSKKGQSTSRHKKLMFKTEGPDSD
Tumour suppressor p53/oncoprotein Mdm2, sequence (Q00987 whole entry): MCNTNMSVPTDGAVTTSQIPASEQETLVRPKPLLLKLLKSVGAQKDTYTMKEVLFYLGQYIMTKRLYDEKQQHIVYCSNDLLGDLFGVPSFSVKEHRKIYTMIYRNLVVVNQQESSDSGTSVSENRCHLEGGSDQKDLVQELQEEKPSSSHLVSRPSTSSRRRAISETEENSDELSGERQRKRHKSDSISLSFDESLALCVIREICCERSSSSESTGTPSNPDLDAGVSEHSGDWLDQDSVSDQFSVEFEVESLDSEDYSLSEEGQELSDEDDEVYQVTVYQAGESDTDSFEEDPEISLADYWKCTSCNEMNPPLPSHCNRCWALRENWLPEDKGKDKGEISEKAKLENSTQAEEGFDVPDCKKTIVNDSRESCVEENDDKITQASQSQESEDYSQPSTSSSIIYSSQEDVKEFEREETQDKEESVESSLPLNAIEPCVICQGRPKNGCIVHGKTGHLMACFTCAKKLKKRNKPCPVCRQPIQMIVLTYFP

As for `CC[C@@H](C)Oc1cc2c(cc1OC)CC(=O)N(c1ccc(N(C)Cc3ccncc3)cc1)[C@H]2c1ccc(Cl)cc1`, the results for the pIC50 (in experiment [1]; with SJSA-1) were 4.92 and 5.92, respectively. In the same order, the values of `CC[C@@H](C)Oc1cc2c(cc1OC)CC(=O)N(c1ccc(N(C)Cc3ccncc3)cc1)[C@@H]2c1ccc(Cl)cc1` are less than 4.52 and 4.53. `CC[C@@H](C)Oc1cc2c(cc1OC)CC(=O)N(c1ccc(N(C)Cc3cccc(F)c3)cc1)C2c1ccc(Cl)cc1` (some centres not stated): the pIC50 in experiment [2] was 6.77. On the same count and under the same terms, the result for `CC[C@@H](C)Oc1cc2c(cc1OC)CC(=O)N(c1ccc(N(C)Cc3ccc(F)cc3)cc1)C2c1ccc(Cl)cc1` (some centres not stated) reads 6.92; that for `CC[C@@H](C)Oc1cc2c(cc1OC)CC(=O)N(c1ccc(N(C)Cc3cccnc3)cc1)C2c1ccc(Cl)cc1` (some centres not stated), 7.82; that for `CCOc1cc2c(cc1OCC)C(c1ccc(Cl)cc1)N(c1cccc(Cl)c1)C(=O)C2` (racemic), 5.85. Turning to `CCOc1cc2c(cc1OCC)C(c1ccc(Cl)cc1)N(c1ccc(OC)cc1)C(=O)C2` (racemic), the pIC50 was 6.27 in experiment [2], 4.71 in experiment [1] and 4.78 in the experiment with SJSA-1. With `CCOc1cc2c(cc1OCC)C(c1ccc(Cl)cc1)N(c1ccc(Cl)cc1)C(=O)C2` (racemic), the pIC50 in experiment [2] is 6.00.
